Experimental data taken from patent US8822471B2, “Compounds, pharmaceutical compositions and uses thereof” (Boehringer Ingelheim International GmbH, priority 2011, dated 2014).

These compounds were tested against T1, mutant form of the human GPR119 receptor (Homo sapiens, UniProt Q8TDV5, S329A/T327A) (assay: LANCE cAMP-384 assay in HEK293 cells stably expressing a mutant form of the human GPR119 receptor). Details: HEK293 cells stably expressing mutant human GPR119, LANCE cAMP-384 Kit, 20 min at 37° C.
T1 construct: T327 & S329 changed to alanines; expressed in transfected cells
T1 sequence (Q8TDV5 2-335 T327A/S329A): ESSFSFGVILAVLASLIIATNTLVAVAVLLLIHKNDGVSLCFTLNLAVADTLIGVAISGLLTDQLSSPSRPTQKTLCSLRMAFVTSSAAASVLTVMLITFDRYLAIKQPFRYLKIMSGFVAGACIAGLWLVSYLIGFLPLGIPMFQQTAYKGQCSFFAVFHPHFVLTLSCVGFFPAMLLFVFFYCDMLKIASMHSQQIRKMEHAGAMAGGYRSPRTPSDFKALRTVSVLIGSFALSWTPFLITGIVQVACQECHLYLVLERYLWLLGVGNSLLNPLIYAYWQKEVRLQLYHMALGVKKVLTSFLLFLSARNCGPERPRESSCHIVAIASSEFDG
Type: cell-based
Method: Quantitative detection of cAMP accumulation from cells expressing human GPR119 receptor is achieved using Perkin Elmer's LANCE cAMP-384 Kit (Cat#AD0264) according to the manufacturer's protocol. Briefly, HEK293 cells stably expressing a mutant form of the human GPR119 receptor as assay tool (Methionine 1 replaced with the amino acid sequence […], and T327 & S329 changed to alanines; SEQ ID No. 1) are grown to 50-70% confluency in cell culture media (DMEM, 10% heat inactivated Fetal Bovine Serum, 50 I.U./mL penicillin, 50 μg/mL streptomycin, 10 mM HEPES, 20 μg/mL G418 Sulfate). On the day of the assay, GPR119 stable HEK293 cells are lifted from the tissue culture plate and 1000 cells/well are incubated along with various concentrations of test compounds for 20 min at 37° C. Detection Buffer (50 mM HEPES, 10 mM calcium chloride, 0.35% Triton X-100, 1 mg/mL BSA) containing cAMP-specific antibody is then added to all wells and allowed to equilibrate in the dark for 10 minutes at room temperature. Upon equilibration, Detection Buffer containing europium-labeled cAMP tracer complex is added to all wells and allowed to react for 1 hour at room temperature. After 1 hour, bound europium-labeled cAMP tracer is measured using a Perkin Elmer Envision plate reader. The quantity of cAMP generated in each well is derived from a standard curve. EC50 is determined using nonlinear regression analysis of the cAMP values over a range of agonist concentration (12 points spanning the range from 30 μM to 100 pM).
With `Cc1ncnn1-c1ccc(C(=O)N(C2CC2)C2CCN(c3nc(C(C)C)no3)CC2)cc1F` [Example 101, N-Cyclopropyl-3-fluoro-N-[1-(3-isopropyl-[1,2,4]oxadiazol-5-yl)-piperidin-4-yl]-4-(5-methyl-[1,2,4]triazol-1-yl)-benzamide] the EC50 was 1130 nM.
`CCc1cnc(N2CCC(N(C(=O)c3ccc(-n4ccnc4C)cc3)C3CC3)CC2)nc1` [Example 102, N-Cyclopropyl-N-[1-(5-ethyl-pyrimidin-2-yl)-piperidin-4-yl]-4-(2-methyl-imidazol-1-yl)-benzamide] gave an EC50 of 1090 nM.
`CCc1cnc(N2CCC(N(C(=O)c3ccc(-n4ncnc4C)cc3)C3CC3)CC2)nc1` [Example 103, N-Cyclopropyl-N-[1-(5-ethyl-pyrimidin-2-yl)-piperidin-4-yl]-4-(5-methyl-[1,2,4]triazol-1-yl)-benzamide] showed an EC50 of 1590 nM.
`CCc1cnc(N2CCC(N(C(=O)c3ccc(-n4ccnc4C)c(F)c3)C3CC3)CC2)nc1` [Example 104, N-Cyclopropyl-N-[1-(5-ethyl-pyrimidin-2-yl)-piperidin-4-yl]-3-fluoro-4-(2-methyl-imidazol-1-yl)-benzamide] was tested, and the EC50 was 1950 nM.
In the case of `CCc1cnc(N2CCC(N(C(=O)c3ccc(-n4cncn4)c(F)c3)C3CC3)CC2)nc1` [Example 105, N-Cyclopropyl-N-[1-(5-ethyl-pyrimidin-2-yl)-piperidin-4-yl]-3-fluoro-4-[1,2,4]triazol-1-yl-benzamide], the EC50 is reported as 53 nM.
With `CCc1cnc(N2CCC(N(C(=O)c3ccc(-n4ncnc4C)c(F)c3)C3CC3)CC2)nc1` [Example 106, N-Cyclopropyl-N-[1-(5-ethyl-pyrimidin-2-yl)-piperidin-4-yl]-3-fluoro-4-(5-methyl-[1,2,4]triazol-1-yl)-benzamide] the EC50 was 885 nM.
In the case of `Cc1nccn1-c1ccc(C(=O)N(C2CC2)C2CCN(c3ncc(Cl)cn3)CC2)cc1` [Example 107, N-[1-(5-Chloro-pyrimidin-2-yl)-piperidin-4-yl]-N-cyclopropyl-4-(2-methyl-imidazol-1-yl)-benzamide], the EC50 is reported as 549 nM.
For `O=C(c1ccc(-n2cncn2)cc1)N(C1CC1)C1CCN(c2ncc(Cl)cn2)CC1` [Example 108, N-[1-(5-Chloro-pyrimidin-2-yl)-piperidin-4-yl]-N-cyclopropyl-4-[1,2,4]triazol-1-yl-benzamide], the EC50 was 552 nM.
`Cc1ncnn1-c1ccc(C(=O)N(C2CC2)C2CCN(c3ncc(Cl)cn3)CC2)cc1` [Example 109, N-[1-(5-Chloro-pyrimidin-2-yl)-piperidin-4-yl]-N-cyclopropyl-4-(5-methyl-[1,2,4]triazol-1-yl)-benzamide] was tested, and the EC50 was 1740 nM.
Compound `O=C(c1ccc(-n2cnnn2)cc1)N(C1CC1)C1CCN(c2ncc(Cl)cn2)CC1` [Example 110, N-[1-(5-Chloro-pyrimidin-2-yl)-piperidin-4-yl]-N-cyclopropyl-4-tetrazol-1-yl-benzamide] has an EC50 of 360 nM.
In the case of `Cc1nnnn1-c1ccc(C(=O)N(C2CC2)C2CCN(c3ncc(Cl)cn3)CC2)cc1` [Example 111, N-[1-(5-Chloro-pyrimidin-2-yl)-piperidin-4-yl]-N-cyclopropyl-4-(5-methyl-tetrazol-1-yl)-benzamide], the EC50 is reported as 407 nM.
Compound `Cc1nccn1-c1ccc(C(=O)N(C2CC2)C2CCN(c3ncc(Cl)cn3)CC2)cc1F` [Example 112, N-[1-(5-Chloro-pyrimidin-2-yl)-piperidin-4-yl]-N-cyclopropyl-3-fluoro-4-(2-methyl-imidazol-1-yl)-benzamide] has an EC50 of 1500 nM.
Work on `O=C(c1ccc(-n2cncn2)c(F)c1)N(C1CC1)C1CCN(c2ncc(Cl)cn2)CC1` [Example 113, N-[1-(5-Chloro-pyrimidin-2-yl)-piperidin-4-yl]-N-cyclopropyl-3-fluoro-4-[1,2,4]triazol-1-yl-benzamide] yielded an EC50 of 47 nM.
`O=C(c1ccc(-n2cnnn2)c(F)c1)N(C1CC1)C1CCN(c2ncc(Cl)cn2)CC1` [Example 115, N-[1-(5-Chloro-pyrimidin-2-yl)-piperidin-4-yl]-N-cyclopropyl-3-fluoro-4-tetrazol-1-yl-benzamide] was tested, and the EC50 was 54 nM.
`Cc1nnnn1-c1ccc(C(=O)N(C2CC2)C2CCN(c3ncc(Cl)cn3)CC2)cc1F` [Example 116, N-[1-(5-Chloro-pyrimidin-2-yl)-piperidin-4-yl]-N-cyclopropyl-3-fluoro-4-(5-methyl-tetrazol-1-yl)-benzamide] gave an EC50 of 294 nM.
With `O=C(c1ccc(-n2cnnn2)cc1)N(C1CC1)C1CCN(c2ncc(C(F)(F)F)cc2F)CC1` [Example 117, N-Cyclopropyl-N-(3′-fluoro-5′-trifluoromethyl-3,4,5,6-tetrahydro-2H-[1,2′]bipyridinyl-4-yl)-4-tetrazol-1-yl-benzamide] the EC50 was 53 nM.
`Cc1nnnn1-c1ccc(C(=O)N(C2CC2)C2CCN(c3ncc(C(F)(F)F)cc3F)CC2)cc1` [Example 118, N-Cyclopropyl-N-(3′-fluoro-5′-trifluoromethyl-3,4,5,6-tetrahydro-2H-[1,2′]bipyridinyl-4-yl)-4-(5-methyl-tetrazol-1-yl)-benzamide] gave an EC50 of 101 nM.
For `Cc1nnnn1-c1ccc(C(=O)N(C2CC2)C2CCN(c3ncc(C(F)(F)F)cc3F)CC2)cc1F` [Example 119, N-Cyclopropyl-3-fluoro-N-(3′-fluoro-5′-trifluoromethyl-3,4,5,6-tetrahydro-2H-[1,2]bipyridinyl-4-yl)-4-(5-methyl-tetrazol-1-yl)-benzamide], the EC50 was 117 nM.
